Measured values as given in patent US20240190890A1, “MK2 INHIBITORS AND USES THEREOF” (Bristol-Myers Squibb Company, priority 2022, published 2024).

molecular target: p38a activated, mitogen-activated protein kinase-activated protein kinase 2 (MAPKAP-K2 or MK2) enzyme (Homo sapiens (Human), UniProt P49137); experiment: MK2 Omnia continuous-read kinase assay for compound potency; type: biochemical; details: [MK-2]=0.4 nM, [ATP]=10 μM, [ST3-Sox]=10 μM; room temperature
Text: Mitogen-Activated Protein Kinase-Activated Protein Kinase 2 Omnia® Assay for Compound Potency Assessment:
The protocol below describes a continuous-read kinase assay optimized to measure potency of compounds against p38a activated, mitogen-activated protein kinase-activated protein kinase 2 (MAPKAP-K2 or MK2) enzyme. Further details of this assay are described by Life Technologies, Carlsbad, CA on their website at the following URL: http://tools.lifetechnologies.com/content/sfs/manuals/omnia_kinase_assay_man.pdf. • [Reagent] used: • [MK-2]=0.4 nM, • [ATP]=10 μM and • [ST3-Sox]=10 μM (ATP^appKM=10 μM)
Briefly, 10× stock solutions of MK2 (PV3317, from Life Technologies), 1.13X ATP (AS001A), and Sox conjugated peptide substrate, S/T3-Sox, (KZN1031) were prepared in 1× kinase reaction buffer consisting of 20 mM Tris, pH 7.5, 5 mM MgCl2, 1 mM EGTA, 5 mM β-glycerophosphate, 5% glycerol (10× stock, KB001A) and 0.2 mM DTT (DS001A). Enzyme solution (5 μL) was added to each of DMSO ([…]) or serially diluted test compounds prepared in DMSO in a Corning (#3574) 384-well, white, non-binding surface microtiter plate (Corning, NY). Kinase reactions were started with the addition of 45 μL of the ATP-peptide substrate S/T3-Sox mix and monitored every 71 seconds for 120 minutes at λex360/λem485 in a Synergy H4 plate reader from BioTek (Winooski, VT) at room temperature.
Background signals from the no enzyme control wells were subtracted from all progress curves. The initial linear portions of the net progress curves were fit according to a linear equation to yield the slope and percentage of inhibition (% inhibition) at each compound concentration. The net progress curves obtained during the first two hours of reactions were also fit according to an ascending single-exponential equation (Eq. 1) to yield kobs values at each compound concentration. Plots of % Inhibition versus inhibitor concentrations were fit according to a dose-response equation (Eq. 2) to generate IC50 and Hill slope values while plots of kobs versus inhibitor concentration were fit according to Equation 3 (Eq. 3) to generate apparent kinact/K1 values using the GraphPad PRISM software (Version 6.00; GraphPad San Diego, CA).
where F is the fluorescence intensity from the plate reader, V0 is a constant reflecting the relationship between the instrument readout and product concentration, t is time, e is Euler's number, and kobs is the observed inactivation rate constant.
where % Inhibition is percentage of inhibition, IC50 is half maximal inhibitory concentration, [I] is the inhibitor concentration, and n is the Hill slope.
where kobs is the observed inactivation rate constant, kinact is the apparent inactivation rate constant, K1 is the apparent inhibition constant, and [I] is the inhibitor concentration. […] Potency results for the compounds tested are shown in Table 4 in the column entitled “MK2 IC50.”

p38a activated, mitogen-activated protein kinase-activated protein kinase 2 (MAPKAP-K2 or MK2) enzyme, sequence (P49137 whole entry): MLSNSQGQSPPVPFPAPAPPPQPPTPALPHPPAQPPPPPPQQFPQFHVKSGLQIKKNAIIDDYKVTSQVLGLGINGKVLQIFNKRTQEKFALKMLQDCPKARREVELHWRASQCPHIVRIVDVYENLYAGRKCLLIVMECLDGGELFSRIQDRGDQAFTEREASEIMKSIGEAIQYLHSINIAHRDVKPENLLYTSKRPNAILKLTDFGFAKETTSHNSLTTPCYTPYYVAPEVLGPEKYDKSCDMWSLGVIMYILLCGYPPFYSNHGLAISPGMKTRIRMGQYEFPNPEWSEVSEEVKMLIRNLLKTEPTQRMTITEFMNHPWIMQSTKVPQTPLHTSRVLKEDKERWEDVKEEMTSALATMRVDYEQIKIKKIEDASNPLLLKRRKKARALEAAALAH

SMILES | IC50
C=Cc1ncc(-c2ccc3c(ccc4sc5c(c43)NC[C@@H](C)NC5=O)n2)[nH]1 [Example I-150, (R)-10-methyl-3-(2-vinyl-1H-imidazol-5-yl)-9,10,11,12-tetrahydro-8H-[1,4]diazepino[5′,6′:4,5]thieno[3,2-f]quinolin-8-one] | 14 nM
C/C=C\c1ncc(COCC)c(-c2ccc3c(ccc4sc5c(c43)NC[C@@H](C)NC5=O)n2)n1 [Example I-49, (R,Z)-3-(5-(ethoxymethyl)-2-(prop-1-en-1-yl)pyrimidin-4-yl)-10-methyl-9,10,11,12-tetrahydro-8H-[1,4]diazepino[5′,6′:4,5]thieno[3,2-f]quinolin-8-one] | 474 nM
C=Cc1cc(-c2ccc3c(ccc4sc5c(c43)NC[C@@H](C)NC5=O)n2)nc(COC)n1 [Example I-13, (R)-3-(2-(methoxymethyl)-6-vinylpyrimidin-4-yl)-10-methyl-9,10,11,12-tetrahydro-8H-[1,4]diazepino[5′,6′:4,5]thieno[3,2-f]quinolin-8-one] | 1 nM
C=Cc1ccn(-c2ccc3c(ccc4sc5c(c43)NC[C@@H](C)NC5=O)n2)n1 [Example I-147, (R)-10-methyl-3-(3-vinyl-1H-pyrazol-1-yl)-9,10,11,12-tetrahydro-8H-[1,4]diazepino[5′,6′:4,5]thieno[3,2-f]quinolin-8-one] | 104 nM
C=C(F)c1cc(-c2ccc3c(ccc4sc5c(c43)NC[C@@H](C)NC5=O)n2)ccn1 [Example I-108, (R)-3-(2-(1-fluorovinyl)pyridin-4-yl)-10-methyl-9,10,11,12-tetrahydro-8H-[1,4]diazepino[5′,6′:4,5]thieno[3,2-f]quinolin-8-one] | 122 nM
C[C@@H]1CNc2c(sc3ccc4nc(-n5cc(Cl)cn5)ccc4c23)C(=O)N1 [Example I-152, (R)-3-(4-chloro-1H-pyrazol-1-yl)-10-methyl-9,10,11,12-tetrahydro-8H-[1,4]diazepino[5′,6′:4,5]thieno[3,2-f]quinolin-8-one] | 86 nM
C[C@@H]1CNc2c(sc3ccc4nc(-c5ccnc(C#CC(C)(C)N)c5)ccc4c23)C(=O)N1 [Example I-135, (R)-3-(2-(3-amino-3-methylbut-1-yn-1-yl)pyridin-4-yl)-10-methyl-9,10,11,12-tetrahydro-8H-[1,4]diazepino[5′,6′:4,5]thieno[3,2-f]quinolin-8-one] | 15 nM
C=Cc1cccc(-c2ccc3c(ccc4sc5c(c43)NC[C@@H](C)NC5=O)n2)n1 [Example I-54, (R)-10-methyl-3-(6-vinylpyridin-2-yl)-9,10,11,12-tetrahydro-8H-[1,4]diazepino[5′,6′:4,5]thieno[3,2-f]quinolin-8-one] | 61 nM

Next, values leading:

IC50 | SMILES
6 nM | C=Cc1cc(-c2ccc3c(ccc4sc5c(c43)NC[C@@H](C)NC5=O)n2)c(COC)cn1 [Example I-253, (R)-3-(5-(methoxymethyl)-2-vinylpyridin-4-yl)-10-methyl-9,10,11,12-tetrahydro-8H-[1,4]diazepino[5′,6′:4,5]thieno[3,2-f]quinolin-8-one]
68 nM | C[C@@H]1CNc2c(sc3ccc4nc(-c5ccnc(Cl)c5)ccc4c23)C(=O)N1 [Example I-272, (R)-3-(2-chloropyridin-4-yl)-10-methyl-9,10,11,12-tetrahydro-8H-[1,4]diazepino[5′,6′:4,5]thieno[3,2-f]quinolin-8-one]
13 nM | C=Cc1cc(-c2ccc3c(ccc4sc5c(c43)NC[C@@H](C)NC5=O)n2)c(CC)cn1 [Example I-195, (R)-3-(5-ethyl-2-vinylpyridin-4-yl)-10-methyl-9,10,11,12-tetrahydro-8H-[1,4]diazepino[5′,6′:4,5]thieno[3,2-f]quinolin-8-one]
18 nM | C#Cc1cc(-c2ccc3c(ccc4sc5c(c43)NC[C@@H](C)NC5=O)n2)c(C)nn1 [Example I-170, (R)-3-(6-ethynyl-3-methylpyridazin-4-yl)-10-methyl-9,10,11,12-tetrahydro-8H-[1,4]diazepino[5′,6′:4,5]thieno[3,2-f]quinolin-8-one]
